According to patent publication US5519016A, “Aryl group- or aromatic heterocyclic group-substituted aminoquinolone derivatives and anti-HIV agent” (priority 1992, dated 1996):

Key:
HIV [1] = test: microbe, parasite or virus in culture; format: cell-based; settings: Pauwel method
Text: Exponentially growing MT-4 cells were centrifuged, and the pellets were resuspended in RPMI-1640 medium containing 10% fetal serum (serum medium). Portions of the cell suspension were either inoculated with HIV, or left uninfected. Serum medium was then further added to the suspensions, which were then washed and centrifuged. The resulting pellets were then suspended in serum medium to a concentration of 4×10^5 cells/mi. Preparations of the test compound (in serum medium) were […] in a stepwise manner, and 100 μl of each of the solutions were placed in separated wells of a 96-well plastic microtitre plate. 100 μl of each of the cell suspensions (infected and non-infected) were then added to the wells, so that each dilution of each of the test compounds was tested against both infected and noninfected cells. Blanks (not added either of the cells) were also prepared. The preparations were then cultured by standing the plate at 37° C. for 5 days in the presence of 5 % carbon dioxide gas.
At the end of this time, living cells were assayed for CPE inhibitory activity by the spectrophotometric assay of the blue formazan produced by the reduction of MTT [3-(4,5-dimethylthiazol-2-yl) -2,5-diphenyl-tetrazolium bromide]which was added to the preparations.
CPE inhibitory activity was defined as 100% in non-infected cells to which no test compounds had been added, while CPE inhibitory activity was defined as 0% in infected cells to which test compounds had not been added.

HIV [2] = settings: literature / WO-A-90-13542; cited from earlier work

NC1CCN(c2nc3c(cc2F)c(=O)c(C(=O)O)cn3-c2ccc(F)cc2F)C1 (centres unmarked) [Tosufloxacin, reference compound]
anti-HIV activity (in words) (HIV [1]): little or no anti-HIV activity | anti-HIV activity (reported) (HIV [2]): anti-HIV activity
